Experimental data from ChEMBL document CHEMBL4706768, “Discovery of Potent, Selective Triazolothiadiazole-Containing c-Met Inhibitors” (ACS Med Chem Lett, 2021).

How the values were obtained:
[1] = biological target: Hepatocyte growth factor receptor (Homo sapiens, UniProt P08581); experiment: Inhibition of c-Met (unknown origin) using poly Glu-Tyr as substrate preincubated for 10 mins followed by ATP addition by phosphoenolpyruvate/pyruvate kinase/lactate dehydrogenase coupled radiometric assay
[2] = biological target: Receptor-type tyrosine-protein kinase FLT3 (Homo sapiens, UniProt P36888); experiment: Inhibition of FLT3 (unknown origin)
[3] = Inhibition of GSK3 (unknown origin); set-up: species or system Homo sapiens
[4] = biological target: Tyrosine-protein kinase JAK2 (Homo sapiens, UniProt O60674); experiment: Inhibition of JAK2 (unknown origin)
[5] = biological target: Tyrosine-protein kinase receptor TYRO3 (Homo sapiens, UniProt Q06418); experiment: Inhibition of SKY (unknown origin)
[6] = biological target: Tyrosine-protein kinase ABL1 (Homo sapiens) (UniProt P00519); experiment: Inhibition of recombinant N-terminal His6-tagged human ABL (27 to end residues) expressed in baculovirus infected Sf21 insect cells at 2 uM using Abltide as substrate relative to control
[7] = biological target: Tyrosine-protein kinase receptor UFO (Homo sapiens) (UniProt P30530); experiment: Inhibition of recombinant N-terminal His6-tagged human AXL (473 to end residues) expressed in Sf21 insect cells at 2 uM using Axl-tide as substrate relative to control
[8] = biological target: Tyrosine-protein kinase Blk (Homo sapiens) (UniProt P51451); experiment: Inhibition of recombinant N-terminal His6-tagged human full-length BLK expressed in Sf21 insect cells at 2 uM using Poly (Glu4-Tyr) (4:1) as substrate relative to control
[9] = biological target: Tyrosine-protein kinase BTK (Homo sapiens) (UniProt Q06187); experiment: Inhibition of recombinant N-terminal His6-tagged human full-length BTK expressed in Sf21 insect cells at 2 uM using Src peptide as substrate relative to control
[10] = biological target: Cyclin-dependent kinase 5/CDK5 activator 1 (Homo sapiens) (UniProt Q00535+Q15078); experiment: Inhibition of recombinant N-terminal His6-tagged human full-length CDK5/N-terminal GST-tagged full-length p35 expressed in baculovirus infected Sf21 insect cells at 2 uM using Histone H1 as substrate relative to control
[11] = biological target: Serine/threonine-protein kinase Chk1 (Homo sapiens) (UniProt O14757); experiment: Inhibition of recombinant human N-terminal GST-tagged full-length CHK1 expressed in Sf21 insect cells at 2 uM using CHKtide as substrate relative to control
[12] = species: Homo sapiens; experiment: Inhibition of CK1 (unknown origin) at 2 uM relative to control
[13] = biological target: Epidermal growth factor receptor (Homo sapiens) (UniProt P00533); experiment: Inhibition of recombinant human N-terminal GST-tagged EGFR (696 to end residues) expressed in baculovirus infected Sf21 insect cells at 2 uM using angiotensin II peptide as substrate relative to control
[14] = biological target: Ephrin type-B receptor 4 (Homo sapiens) (UniProt P54760); experiment: Inhibition of recombinant human N-terminal GST-tagged EphB4 (561 to end residues) expressed in baculovirus infected Sf21 insect cells at 2 uM using poly (Glu,Tyr) (4:1) as substrate relative to control
[15] = biological target: Tyrosine-protein kinase Fyn (Homo sapiens) (UniProt P06241); experiment: Inhibition of recombinant human N-terminal His6-tagged full-length FYN expressed in baculovirus infected Sf21 insect cells at 2 uM using Src peptide as substrate relative to control
[16] = biological target: Insulin-like growth factor 1 receptor (Homo sapiens) (UniProt P08069); experiment: Inhibition of recombinant human N-terminal His6-tagged IGF1R (959 to end residues) expressed in baculovirus infected Sf21 insect cells at 2 uM relative to control
[17] = biological target: Inhibitor of nuclear factor kappa-B kinase subunit alpha (Homo sapiens) (UniProt O15111); experiment: Inhibition of IKKa (unknown origin) at 2 uM relative to control
[18] = biological target: Insulin receptor-related protein (Homo sapiens) (UniProt P14616); experiment: Inhibition of recombinant human N-terminal His6-tagged IRR (944 to 1266 residues) expressed in baculovirus infected Sf21 insect cells at 2 uM using MBP (13-104) as substrate relative to control
[19] = biological target: Mitogen-activated protein kinase 8 (Homo sapiens) (UniProt P45983); experiment: Inhibition of recombinant human full-length N-terminal His-tagged JNK1alpha1 ([…]) expressed in Sf21 insect cells at 2 uM using ATF2 (19 to 96 residues) as substrate relative to control
[20] = biological target: Tyrosine-protein kinase Lck (Homo sapiens) (UniProt P06239); experiment: Inhibition of recombinant human full-length N-terminal His6-tagged LCK expressed in baculovirus infected Sf21 insect cells at 2 uM relative to control
[21] = biological target: Serine/threonine-protein kinase mTOR (Homo sapiens) (UniProt P42345); experiment: Inhibition of recombinant human N-terminal FLAG-tagged mTOR (1362 to end residues) at 2 uM relative to control
[22] = biological target: Dual specificity mitogen-activated protein kinase kinase 7 (Homo sapiens) (UniProt O14733); experiment: Inhibition of recombinant human N-terminal GST-tagged MKK7beta1 (2 to end residues) expressed in Escherichia coli at 2 uM using JNK1alpha1/SAPK1c as substrate relative to control
[23] = biological target: Serine/threonine-protein kinase 3 (Homo sapiens) (UniProt Q13188); experiment: Inhibition of recombinant human N-terminal His6-tagged MST2 (2 to end residues) expressed in baculovirus infected Sf21 insect cells at 2 uM using MBP as substrate relative to control
[24] = biological target: Serine/threonine-protein kinase N2 (Homo sapiens) (UniProt Q16513); experiment: Inhibition of PRK2 (unknown origin) at 2 uM relative to control
[25] = biological target: Receptor-interacting serine/threonine-protein kinase 2 (Homo sapiens) (UniProt O43353); experiment: Inhibition of recombinant human N-terminal His6-tagged RIPK2 (1 to 299 residues) expressed in baculovirus infected Sf21 insect cells at 2 uM using MBP as substrate relative to control
[26] = biological target: Proto-oncogene tyrosine-protein kinase ROS (Homo sapiens) (UniProt P08922); experiment: Inhibition of recombinant human N-terminal His6-tagged ROS (1883 to end residues) expressed in baculovirus infected Sf21 insect cells at 2 uM using KKKSPGEYVNIEFG as substrate relative to control
[27] = biological target: Tyrosine-protein kinase ZAP-70 (Homo sapiens) (UniProt P43403); experiment: Inhibition of recombinant human full-length C-terminal His6-tagged ZAP70 expressed in Sf21 insect cells at 2 uM using poly (Glu4-Tyr) (4:1) as substrate relative to control
[28] = biological target: High affinity nerve growth factor receptor (Homo sapiens) (UniProt P04629); experiment: Inhibition of recombinant human N-terminal His6-tagged TRKA (440 to end residues) expressed in baculovirus infected Sf21 insect cells at 2 uM using KKKSPGEYVNIEFG as substrate relative to control
[29] = species: Homo sapiens; experiment: Selectivity ratio of IC50 for inhibition of recombinant human N-terminal GST/His-tagged PDE3A (669 to 1141 residues) expressed in baculovirus infected Sf9 insect cells to IC50 for inhibition of c-MET in human SNU-5 cells

Chain of Receptor-interacting serine/threonine-protein kinase 2 (Homo sapiens) (O43353 whole entry, the tested form may be a part): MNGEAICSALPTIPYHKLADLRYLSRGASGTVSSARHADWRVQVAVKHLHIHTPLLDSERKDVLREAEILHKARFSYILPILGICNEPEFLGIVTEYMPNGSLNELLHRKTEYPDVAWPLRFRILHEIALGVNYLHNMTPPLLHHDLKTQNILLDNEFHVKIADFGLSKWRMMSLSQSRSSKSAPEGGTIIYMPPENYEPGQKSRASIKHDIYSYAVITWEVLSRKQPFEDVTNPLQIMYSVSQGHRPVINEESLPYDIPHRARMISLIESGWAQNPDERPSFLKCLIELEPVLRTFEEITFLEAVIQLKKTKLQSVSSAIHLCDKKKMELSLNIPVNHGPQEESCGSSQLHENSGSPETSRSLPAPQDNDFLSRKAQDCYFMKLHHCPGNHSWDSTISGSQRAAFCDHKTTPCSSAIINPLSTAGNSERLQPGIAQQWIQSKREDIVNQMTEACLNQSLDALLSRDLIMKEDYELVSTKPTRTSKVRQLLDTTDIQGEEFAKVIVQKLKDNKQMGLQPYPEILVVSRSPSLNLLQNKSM
Chain of Tyrosine-protein kinase ZAP-70 (Homo sapiens) (P43403 whole entry): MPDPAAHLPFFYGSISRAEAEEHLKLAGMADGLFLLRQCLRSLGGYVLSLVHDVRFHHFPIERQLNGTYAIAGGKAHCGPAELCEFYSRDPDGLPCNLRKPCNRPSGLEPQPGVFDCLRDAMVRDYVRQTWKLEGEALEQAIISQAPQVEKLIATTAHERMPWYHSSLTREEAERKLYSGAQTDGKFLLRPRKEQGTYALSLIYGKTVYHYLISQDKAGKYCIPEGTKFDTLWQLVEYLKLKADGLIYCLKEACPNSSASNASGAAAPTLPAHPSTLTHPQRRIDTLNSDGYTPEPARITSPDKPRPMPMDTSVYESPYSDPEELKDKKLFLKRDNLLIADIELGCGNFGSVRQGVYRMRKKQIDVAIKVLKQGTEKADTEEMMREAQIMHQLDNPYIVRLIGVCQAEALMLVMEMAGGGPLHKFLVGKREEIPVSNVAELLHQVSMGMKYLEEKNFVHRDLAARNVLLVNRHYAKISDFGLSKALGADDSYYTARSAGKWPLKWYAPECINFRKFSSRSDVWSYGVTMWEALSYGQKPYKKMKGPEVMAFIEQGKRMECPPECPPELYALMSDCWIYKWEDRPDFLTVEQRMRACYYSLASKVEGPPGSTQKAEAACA
Chain of Tyrosine-protein kinase receptor UFO (Homo sapiens) (P30530 whole entry): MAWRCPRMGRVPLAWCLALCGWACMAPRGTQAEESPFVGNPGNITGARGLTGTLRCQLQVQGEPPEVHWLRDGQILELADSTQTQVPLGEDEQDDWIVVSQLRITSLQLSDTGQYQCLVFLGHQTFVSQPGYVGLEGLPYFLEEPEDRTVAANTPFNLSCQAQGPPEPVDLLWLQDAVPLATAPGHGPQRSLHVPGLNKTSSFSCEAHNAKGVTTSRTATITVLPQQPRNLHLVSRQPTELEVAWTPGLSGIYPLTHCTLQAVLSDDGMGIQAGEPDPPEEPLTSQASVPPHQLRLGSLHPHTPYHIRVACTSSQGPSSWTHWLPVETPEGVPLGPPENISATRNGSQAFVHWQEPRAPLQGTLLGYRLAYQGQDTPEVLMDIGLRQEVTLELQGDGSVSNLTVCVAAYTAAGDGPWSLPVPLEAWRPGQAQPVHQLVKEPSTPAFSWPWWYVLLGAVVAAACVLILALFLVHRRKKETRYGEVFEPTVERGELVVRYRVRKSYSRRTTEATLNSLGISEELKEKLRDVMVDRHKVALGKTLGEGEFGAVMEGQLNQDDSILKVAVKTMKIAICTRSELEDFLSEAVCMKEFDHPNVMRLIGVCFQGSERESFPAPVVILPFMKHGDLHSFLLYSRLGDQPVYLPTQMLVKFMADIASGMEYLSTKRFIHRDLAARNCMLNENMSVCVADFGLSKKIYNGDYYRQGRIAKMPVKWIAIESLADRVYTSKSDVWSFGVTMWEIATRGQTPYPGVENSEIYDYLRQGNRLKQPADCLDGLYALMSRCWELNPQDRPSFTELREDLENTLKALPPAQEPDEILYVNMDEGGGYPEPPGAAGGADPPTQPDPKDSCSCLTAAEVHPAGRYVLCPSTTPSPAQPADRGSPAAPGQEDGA
Chain of Tyrosine-protein kinase BTK (Homo sapiens) (Q06187 whole entry): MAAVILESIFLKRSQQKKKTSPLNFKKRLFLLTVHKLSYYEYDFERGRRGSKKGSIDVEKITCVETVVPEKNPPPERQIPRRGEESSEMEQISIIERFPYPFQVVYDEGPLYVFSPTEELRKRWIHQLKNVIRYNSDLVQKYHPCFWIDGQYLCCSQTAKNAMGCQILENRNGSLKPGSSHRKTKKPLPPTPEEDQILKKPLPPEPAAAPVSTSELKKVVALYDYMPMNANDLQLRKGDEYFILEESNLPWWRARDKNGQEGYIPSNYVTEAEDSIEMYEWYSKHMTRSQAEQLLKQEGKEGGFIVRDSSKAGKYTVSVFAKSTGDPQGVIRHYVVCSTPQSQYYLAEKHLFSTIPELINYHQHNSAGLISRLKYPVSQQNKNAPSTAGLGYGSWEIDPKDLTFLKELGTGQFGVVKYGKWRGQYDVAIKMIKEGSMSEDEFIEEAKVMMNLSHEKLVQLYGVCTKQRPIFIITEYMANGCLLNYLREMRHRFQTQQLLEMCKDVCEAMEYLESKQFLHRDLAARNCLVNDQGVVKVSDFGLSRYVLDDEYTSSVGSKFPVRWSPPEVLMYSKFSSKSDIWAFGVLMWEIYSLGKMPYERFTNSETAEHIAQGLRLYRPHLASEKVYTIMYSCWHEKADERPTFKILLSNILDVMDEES
Chain of Cyclin-dependent kinase 5/CDK5 activator 1 (Homo sapiens) (Q00535 whole entry): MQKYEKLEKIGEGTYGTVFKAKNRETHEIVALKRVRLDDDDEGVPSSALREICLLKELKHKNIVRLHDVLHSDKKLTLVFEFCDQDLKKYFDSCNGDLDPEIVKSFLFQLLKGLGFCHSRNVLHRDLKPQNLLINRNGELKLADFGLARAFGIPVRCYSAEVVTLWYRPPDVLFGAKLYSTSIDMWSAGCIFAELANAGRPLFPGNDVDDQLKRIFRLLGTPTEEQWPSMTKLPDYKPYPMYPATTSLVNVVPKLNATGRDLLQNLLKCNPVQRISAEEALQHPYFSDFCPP
Chain of Cyclin-dependent kinase 5/CDK5 activator 1 (Homo sapiens) (Q15078 99-307 partner limits assumed): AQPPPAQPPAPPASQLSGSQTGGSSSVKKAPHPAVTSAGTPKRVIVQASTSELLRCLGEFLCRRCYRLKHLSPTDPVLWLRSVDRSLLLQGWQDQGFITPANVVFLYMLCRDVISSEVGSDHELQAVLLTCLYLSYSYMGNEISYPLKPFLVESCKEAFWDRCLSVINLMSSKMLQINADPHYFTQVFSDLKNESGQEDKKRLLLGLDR
Chain of Epidermal growth factor receptor (Homo sapiens) (P00533 whole entry): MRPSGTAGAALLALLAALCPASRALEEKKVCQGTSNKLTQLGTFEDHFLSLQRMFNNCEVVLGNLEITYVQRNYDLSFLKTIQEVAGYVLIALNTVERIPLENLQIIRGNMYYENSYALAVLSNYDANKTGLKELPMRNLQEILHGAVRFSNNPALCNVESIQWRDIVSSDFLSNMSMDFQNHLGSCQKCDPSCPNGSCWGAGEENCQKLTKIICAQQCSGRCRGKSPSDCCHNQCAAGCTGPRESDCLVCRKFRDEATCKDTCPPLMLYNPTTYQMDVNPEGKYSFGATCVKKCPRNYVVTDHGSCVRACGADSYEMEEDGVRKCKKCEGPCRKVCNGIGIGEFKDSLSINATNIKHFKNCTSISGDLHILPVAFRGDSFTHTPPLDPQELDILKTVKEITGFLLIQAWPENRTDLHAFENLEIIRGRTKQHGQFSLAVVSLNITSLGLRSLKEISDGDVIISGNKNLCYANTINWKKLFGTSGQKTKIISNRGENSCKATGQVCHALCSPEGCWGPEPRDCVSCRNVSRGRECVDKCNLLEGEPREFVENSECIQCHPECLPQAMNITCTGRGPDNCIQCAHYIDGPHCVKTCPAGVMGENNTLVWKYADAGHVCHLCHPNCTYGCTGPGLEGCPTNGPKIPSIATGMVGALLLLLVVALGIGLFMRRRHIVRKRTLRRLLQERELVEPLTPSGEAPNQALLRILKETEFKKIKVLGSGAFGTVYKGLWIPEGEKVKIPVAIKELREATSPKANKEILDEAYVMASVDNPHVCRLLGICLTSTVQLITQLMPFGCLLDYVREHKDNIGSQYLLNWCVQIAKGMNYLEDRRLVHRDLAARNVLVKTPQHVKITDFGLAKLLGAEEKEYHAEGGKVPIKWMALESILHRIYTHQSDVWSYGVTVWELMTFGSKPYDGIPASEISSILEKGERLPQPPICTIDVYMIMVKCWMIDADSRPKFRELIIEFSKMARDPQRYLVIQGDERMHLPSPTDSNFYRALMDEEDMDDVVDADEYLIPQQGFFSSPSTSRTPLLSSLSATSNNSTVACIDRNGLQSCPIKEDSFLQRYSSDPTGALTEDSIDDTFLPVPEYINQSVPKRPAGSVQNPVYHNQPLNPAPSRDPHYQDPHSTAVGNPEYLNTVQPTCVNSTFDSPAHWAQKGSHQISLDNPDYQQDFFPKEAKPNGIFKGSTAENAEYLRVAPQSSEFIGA
Chain of Tyrosine-protein kinase Blk (Homo sapiens) (P51451 2-505 limits assumed): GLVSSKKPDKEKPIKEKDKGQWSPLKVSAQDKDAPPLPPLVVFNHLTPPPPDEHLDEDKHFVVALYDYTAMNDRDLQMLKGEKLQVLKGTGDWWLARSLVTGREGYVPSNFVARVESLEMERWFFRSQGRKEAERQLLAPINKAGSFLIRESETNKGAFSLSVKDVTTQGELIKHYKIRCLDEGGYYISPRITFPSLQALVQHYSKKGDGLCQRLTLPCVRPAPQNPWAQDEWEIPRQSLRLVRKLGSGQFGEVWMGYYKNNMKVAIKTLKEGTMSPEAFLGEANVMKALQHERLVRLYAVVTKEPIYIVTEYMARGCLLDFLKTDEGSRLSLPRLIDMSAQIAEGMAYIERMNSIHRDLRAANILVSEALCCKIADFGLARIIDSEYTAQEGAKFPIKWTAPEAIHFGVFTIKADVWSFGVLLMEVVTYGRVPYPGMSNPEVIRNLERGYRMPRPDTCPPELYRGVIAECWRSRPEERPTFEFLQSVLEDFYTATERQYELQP

C[C@@H](c1ccc2ncccc2c1)c1nnc2sc(-c3cnn(C)c3)nn12
Ki [1]: 20 nM | Ki [2]: > 4 µM | Ki [3]: > 4 µM | Ki [4]: > 4 µM | Ki [5]: > 4 µM | inhibition [6]: < 50% | inhibition [7]: < 50% | inhibition [8]: < 50% | inhibition [9]: < 50% | inhibition [10]: < 50% | inhibition [11]: < 50% | inhibition [12]: < 50% | inhibition [13]: < 50% | inhibition [14]: < 50% | inhibition [15]: < 50% | inhibition [16]: < 50% | inhibition [17]: < 50% | inhibition [18]: < 50% | inhibition [19]: < 50% | inhibition [20]: < 50% | inhibition [21]: < 50% | inhibition [22]: < 50% | inhibition [23]: < 50% | inhibition [24]: < 50% | inhibition [25]: < 50% | inhibition [26]: < 50% | inhibition [27]: < 50% | inhibition [28]: < 50% | Ratio IC50 [29]: 25
